Consider three compounds from patent US20040209956A1 (priority 2003, published 2004).

Assay type in all cases: physicochemical
A short description of series [1]: Moisture sorption of Form I. The following applies: 90% R.H. and 25° C. The text has this:
FIG. 12 is a plot of a moisture sorption study of S-[2-[(1-Iminoethyl)amino]ethyl]-2-methyl-L-cysteine maleate.

The nature of series [2]: Solubility of Form II in acetonitrile/ethanol 3A mixtures. The following applies: equilibrated nineteen days; for Solubility, 70/30 ACN/EtOH 3A wt. % S-[2-[(1-Iminoethyl)amino]ethyl]-2-methyl-L-cysteine: 70/30 v/v acetonitrile/ethanol 3A; for Solubility, 90/10 ACN/EtOH 3A wt. % S-[2-[(1-Iminoethyl)amino]ethyl]-2-methyl-L-cysteine: 90/10 v/v acetonitrile/ethanol 3A. The source says: Excess solids were equilibrated in these solvents at the appropriate temperature (in a shaker bath) for nineteen days. Supernatant samples were withdrawn and analyzed by HPLC for concentration of S-[2-[(1-Iminoethyl)amino]ethyl]-2-methyl-L-cysteine.

Series [3] in a line: Solubility experiments in acetonitrile/water with and without excess maleic acid. Conditions: 90/10 acetonitrile/water with excess maleic acid; nineteen days at 5° C.; slurry in single liquid phase, solids form II. The protocol:
These vials were then placed in a shaker bath at 5° C. After four days of equilibration when the vials were observed, it was discovered that the system had turned from a suspension of solids in a single liquid phase to a biphasic liquid with no suspended solids. Both layers from each of the three vials were analyzed for water content (through Karl-Fischer analysis) and concentration of the compound. […] It is worth pointing out though that the exact conditions leading to measured concentrations in the top layer could only be truly established when the partitioning of excess maleic acid is established between the two layers. The bottom layer (rich in water) would most likely be under-saturated since no excess solids remained. This possibility is substantiated by the solubility data on the bottom layer, where the concentrations are found to be very similar across all the experiments. While the vial at 70/30 acetonitrile/water with excess maleic acid remained biphasic even after nineteen days, the 70/30 acetonitrile/water vial without any excess maleic acid after five days had some very large crystals floating in a solution that still seemed biphasic. […] These crystals were used to obtain crystallography data. After nineteen days of equilibration at 5° C., the 90/10 acetonitrile/water vial with excess maleic acid had turned back into a slurry of solids in a single liquid phase.

The nature of series [4]: Moisture sorption of Form II by DVS moisture balance. Conditions: 25° C. The source says:
However, the solids re-hydrate equally easily when exposed to R.H. greater than 10%. […] The behavior of form II during this experiment was typical of a highly crystalline channel hydrate/solvate.

A short description of series [5]: Pseudo-titration in water with IRA-400(OH) anion exchange resin, samples assayed by HPLC (Example 3). Conditions: for pH of slower rise representative of the pK: pseudo-titration in water, not true equilibrium. The protocol:
60 g of Amberlite IRA400 (OH) resin was prewashed with 4.7 percent (by weight) ammonium hydroxide (50 ml of 28 percent ammonium hydroxide, 250 ml deionized water), followed by extensive washing with deionized water. The final conductivity was 6.1 μS.
Samples containing about 0.9 g of S-[2-[(1-Iminoethyl)amino]ethyl]-2-methyl-L-cysteine di-hydrochloride in 142 ml HCl/water solution, were concentrated on a rotary evaporator at 60° C. to an oil. To the oil, diluted to 60 ml with deionized water, was added aliquots of 0.5 g of washed anion exchange resin while stirring. At five minutes after each aliquot of resin was added, the solution pH was measured and a sample removed through a syringe filter. A total of 9 g of anion exchange resin was added. The final pH was 10.8. The resin was removed by filtration and the filtrate was concentrated to an oil by rotary evaporation at 60° C.; no solids formed. The starting material, final filtrate and all intermediate samples were assayed by HPLC and ion chromatography for chloride.
The diamond (solid line) is pH and square (dashed line) is S-[2-[(1-Iminoethyl)amino]ethyl]-2-methyl-L-cysteine (percent initial, by ion chromatography). […] The diamond (solid line) is pH and triangle (broken line) is chloride (by ion chromatography).
These curves are not true titration curves since samples were withdrawn during the progress of the reaction, and since true equilibrium was not attained before the increments of resin were added. Nevertheless, the graphs of FIG. 2 and FIG. 3 illustrate the expected trends. As resin is added to the S-[2-[(1-Iminoethyl)amino]ethyl]-2-methyl-L-cysteine solution the pH rises with change in slope around pH's of 2, 9 and 11. The pH's of slower rise are representative of the pK's of the carboxylic acid, amine and amidine functional groups, respectively. Above a pH of 10, the S-[2-[(1-Iminoethyl)amino]ethyl]-2-methyl-L-cysteine concentration in solution decreases. At this point, the S-[2-[(1-Iminoethyl)amino]ethyl]-2-methyl-L-cysteine is gaining a net negative charge and is binding to the resin. […] The final chloride content is approximately 0.04 mol equivalents.

The nature of series [6]: Stability of free zwitterion at different pH by ion pairing gradient HPLC (Example 6). Conditions: for Purity At The Time Of Titration: a few hours after preparation; for Purity One Week After Titration: after 1 week. As to the method:
Amberlite IRA400 (Cl) resin was rinsed with 3M HCl, water, and then 3M NaOH. Aliquots were 100 ml per 10 g of resin. This procedure was repeated 3 times in order to clean the resin and in order to generate the OH form. A final rinse with water was carried out until the conductivity of the eluting water was 2 μS. The resin was then used to titrate 40 ml of a 50 mg/ml solution of S-[2-[(1-Iminoethyl)amino]ethyl]-2-methyl-L-cysteine di-hydrochloride. The concentration is expressed in terms of zwitterion equivalents. Aliquots were taken throughout the titration, filtered and analyzed by HPLC. Subsamples of the aliquots were saved for a second HPLC analysis 1 week after the titration was performed in order to assess the stability of the samples. Additional aliquots were taken for Cl analysis using an ion selective electrode. The pH was also monitored throughout the titration.
HPLC analyses were performed using an ion pairing gradient method.
Pump A: 20 mM KH2PO4, 10 mM Pentane sulfonic acid, adjusted to pH=3 with phosphoric acid
Gradient: 0% B at 0 min, 26% B at 15 min, 0% B at 15.1 min

The nature of series [7]: HPLC stability of anion exchange titrated samples (Example 5). Conditions: product at pH of 11 within a few hours. The protocol:
3.3 g of a sample containing about 1 g of S-[2-[(1-Iminoethyl)amino]ethyl]-2-methyl-L-cysteine di-hydrochloride was diluted to 20 g. Aliquots of prewashed Amberlite IRA400 (OH) resin was added to the solution and samples were periodically withdrawn through a syringe filter. Intermediate resin filtrations were performed at pH of 7.1 and 8.8 by filtering off the resin in solution and then continuing to add fresh resin to the filtrate. This was done to drive the chloride removal equilibrium and minimize product adsorption. After the final pH of 11.2 was attained, the resin was filtered off. The starting materials, intermediate samples and final filtrate were analyzed.
The resulting samples were analyzed by HPLC. No difference was seen between the HPLC traces of the starting material and product at pH of 11 within a few hours.

A short description of series [8]: physchem. The text has this: The parent S-[2-[(1-Iminoethyl)amino]ethyl]-2-methyl-L-cysteine molecule has 3 ionizable groups and can exist in 4 ionization states.
At low pH, the molecule exists as a +2 charged free acid, with the carboxylic acid, amine and amidine moieties protonated. This is the ionization state for the dihydrochloride salt.
As the pH is increased, the carboxylic acid group is the first group to deprotonate, and this produces a net charge on the molecule of +1. If the pH increase is generated by addition of sodium hydroxide to S-[2-[(1-Iminoethyl)amino]ethyl]-2-methyl-L-cysteine, the […] is formed. Other bases would make their corresponding salt forms. If the increase in pH is due to removal of chloride ions by anion exchange processing, the product is the monohydrochloride salt with no sodium or other counterions.
A positive charge still resides on the amidine, and a negative charge still resides on the carboxyl group. In contrast, if such material is made by the addition of sodium hydroxide to the dihydrochloride, the resulting product is the monohydrochloro sodium salt, mixed with one equivalent of sodium chloride. The material prepared by the anion exchange resin approach is the free zwitterion.
Further increases in pH lead to deprotonation of the amidine ion (pKa˜12.5). The molecule in this pH range is the free base and acid salt. […]

As for “S-[2-[(1-Iminoethyl)amino]ethyl]-2-methyl-L-cysteine maleate crystalline salt Form I”, the “Water absorbed by weight” value in series [1] is given as “less than one percent”.

On to “S-[2-[(1-Iminoethyl)amino]ethyl]-2-methyl-L-cysteine maleate crystalline salt Form II”, for which the “Solubility, 70/30 ACN/EtOH 3A wt. % S-[2-[(1-Iminoethyl)amino]ethyl]-2-methyl-L-cysteine” value came out at 0.679 wt. % in series [2] (5 ° C.) and 0.737 wt. % in series [2] (25 ° C.). The “Solubility, 90/10 ACN/EtOH 3A wt. % S-[2-[(1-Iminoethyl)amino]ethyl]-2-methyl-L-cysteine” value in series [2] (5 ° C.) amounted to 0.169 wt. %; in series [2] (25 ° C.) it was 0.135 wt. %. For the same compound, in series [3], the “Concentration in the solution phase, S-[2-[(1-Iminoethyl)amino]ethyl]-2-methyl-L-cysteine” value was found to be 0.613 wt %. Also, in series [4] (DVS moisture balance), the “Cycling between sorption and de-sorption cycles” value was “did not show any hysteresis or loss of crystallinity”. Also, the Moisture gain is on record as around 2.5% in series [4] (between 10 and 70% R.H.); around 4.5% in series [4] (between 70 and 90% R.H.).

In general, pKa refers to the negative logarithm of the acid dissociation constant. Higher therefore signals a group that holds its proton tightly. For the compound `CC(=N)NCCSC[C@](C)(N)C(=O)O` [S-[2-[(1-Iminoethyl)amino]ethyl]-2-methyl-L-cysteine], the “pH of slower rise representative of the pK” value in series [5] (amidine group) was around 11; in series [5] (amine group), around 9; in series [5] (carboxylic acid group), around 2. For the same compound, the “Degradation by HPLC assay of the samples” value in series [5] (samples titrated up to final pH 10.8, Example 3) was “no degradation”. Besides, the “Purity At The Time Of Titration” value in series [6] (Sample pH 2.13) turned out to be 98.6 Peak Area %; in series [6] (Sample pH 3.83) it was 98.7 Peak Area %; in series [6] (Sample pH 8.48) it was 98.5 Peak Area %; in series [6] (Sample pH 9.37) it was 98.5 Peak Area %; in series [6] (Sample pH 9.78), 98.3 Peak Area %; in series [6] (Sample pH 10.27), 98.3 Peak Area %. In addition, the “Purity At The Time Of Titration” value in series [6] (Sample pH 10.83) turned out to be 96.6 Peak Area %; in series [6] (Sample pH 11.6), 98.3 Peak Area %; in series [6] (Sample pH 11.75) it was 97.9 Peak Area %; in series [6] (Sample pH .94), 98.0 Peak Area %. For the same compound, the “Purity One Week After Titration” value came out at 98.4 Peak Area % in series [6] (Sample pH 2.13); 98.1 Peak Area % in series [6] (Sample pH 3.83); 97.4 Peak Area % in series [6] (Sample pH 8.48); 97.2 Peak Area % in series [6] (Sample pH 9.37); 97.2 Peak Area % in series [6] (Sample pH 9.78); 96.4 Peak Area % in series [6] (Sample pH 10.27). Also, the “Purity One Week After Titration” value is given as 94.7 Peak Area % in series [6] (Sample pH 10.83), 92.4 Peak Area % in series [6] (Sample pH 11.6), 89.2 Peak Area % in series [6] (Sample pH 11.75) and 98.3 Peak Area % in series [6] (Sample pH .94). Moreover, the “Difference between HPLC traces of starting material and product” value in series [7] is “No difference”. Moreover, in series [8], the pKa was around 8.4.
